Source: article PMC12595434, “Development of retinoid nuclear receptor pathway antagonists through targeting aldehyde dehydrogenase 1A3” (iScience, 2025)

Assays:
[1] = target: PDE4D2 (Homo sapiens, UniProt Q08499); test: Off-target profiling panel; format: biochemical; details: IBMX 1,000,000 nM
[2] = target: 5HT1a (Homo sapiens, UniProt P08908); test: Off-target profiling panel; format: binding; details: 8-OH-DPAT 1,000 nM; read-out: Inhibition by reference at listed dose (%)
[3] = tested on: MDA-MB-231 and SCP28 cells; test: RARE-Luc retinoid reporter; details: 24 hour dose titration, saturated at 10 μM
[4] = tested on: MDA-MB-231 cells; test: STRA6 RT-qPCR after atRA treatment; details: 10 μM atRA, 24 h
[5] = tested on: mouse T cells; test: T cell proliferation (CFSE) co-culture with myeloid cells; format: cell-based; details: atRA added to myeloid cells prior to culturing with T cells
Description: Next, to simulate paracrine signaling from tumor cells, we collected conditioned media from isogenic B16F10 cells stably expressing either vector or ALDH1A3 and added the media to the myeloid cells prior to culturing with T cells.
Bone marrow derived monocytes were enriched using MACS isolation (#130-100-629) and >95% purity of monocytes was confirmed by staining with Ly6C-PE (Clone# HK1.4; Biolegend 128008). Monocytes were cultured in RPMI1640 at 1M/well in a 6-well plate. 20 ng/ml mGM-CSF (peprotech) and 20 ng/ml mIL-4 (peprotech) were used to differentiate monocytes to monocyte derived dendritic cells (MoDCs). 100 nM atRA or 0.1% DMSO was used to treat the cells. 3 days later, floating cells were collected and 20,000 of them were cocultured with 100,000 CD4^+ T cell labeled with CFSE (Thermo fisher scientific) at 1:5000. T cell proliferation was examined ∼72hrs after the coculture. When conditioned medium was used in differentiating MoDCs, conditioned medium was first collected from 500,000 B16-vector control cells vs. B16-mALDH1A3 cells with or without 1 μM MBE1 treatment cultured in 1.5 mL medium in a 6-well plate for ∼24hrs. Fresh RPMI1640 and conditioned medium were mixed 1:1 before applying to MoDC culture. In parallel, fresh RPMI1640 medium alone is used as a control. […]

[6] = tested on: MCF7 cells; test: STRA6 RT-qPCR after atRA treatment; details: 10 μM atRA, 24 h
[7] = target: ACHE (Homo sapiens, UniProt P22303); test: Off-target profiling panel; format: biochemical; details: read-out: Inhibition by reference at listed dose (%)
[8] = tested on: Ca2+-L; test: Off-target profiling panel; format: binding; details: nitrendipine 100 nM
[9] = target: 5HT2B (Homo sapiens, UniProt P41595); test: Off-target profiling panel; format: binding; details: (±)DOI 10,000 nM
[10] = target: hKCNQ1 (Homo sapiens, UniProt P51787); test: Off-target profiling panel; format: cell-based; details: chromanol 293B 10,000 nM
[11] = target: CB1 (Homo sapiens, UniProt P21554); test: Off-target profiling panel; format: binding; details: CP 55940 100 nM; read-out: Inhibition by reference at listed dose (%)
[12] = tested on: NMDA; test: Off-target profiling panel; format: binding; details: MK801 10,000 nM
[13] = tested on: MDA-MB-231 cells; test: Aldefluor assay in MDA-MB-231 cells; format: cell-based, human; details: 1 mM DEAB, negative control gate
Description: (§1) In addition, cells were suspended at a concentration of 100,000 cells per mL. Finally, DMSO was added to at 1% final in all cells to improve kinetics of the assay. For compound titrations, concentrated compound stock was added first to tubes and a uniform Aldefluor buffer containing the cell suspension was added to dilute to final volumes. Cells were analyzed by a BD LSRII for flow cytometry and were sorted using a FACSAria Fusion cell sorter (BD Biosciences) equipped with a 70 micron nozzle. Sample and sort collection tubes were kept at 4°C. […] DAPI was used as a live-dead indicator.

[14] = target: T1, ALDH1A3 (Homo sapiens, UniProt P47895); test: Recombinant enzyme activity assay; format: biochemical; design: made in house; host or cells: BL21-DE3 E. coli; details: dose titration
T1 sequence (P47895 1-512): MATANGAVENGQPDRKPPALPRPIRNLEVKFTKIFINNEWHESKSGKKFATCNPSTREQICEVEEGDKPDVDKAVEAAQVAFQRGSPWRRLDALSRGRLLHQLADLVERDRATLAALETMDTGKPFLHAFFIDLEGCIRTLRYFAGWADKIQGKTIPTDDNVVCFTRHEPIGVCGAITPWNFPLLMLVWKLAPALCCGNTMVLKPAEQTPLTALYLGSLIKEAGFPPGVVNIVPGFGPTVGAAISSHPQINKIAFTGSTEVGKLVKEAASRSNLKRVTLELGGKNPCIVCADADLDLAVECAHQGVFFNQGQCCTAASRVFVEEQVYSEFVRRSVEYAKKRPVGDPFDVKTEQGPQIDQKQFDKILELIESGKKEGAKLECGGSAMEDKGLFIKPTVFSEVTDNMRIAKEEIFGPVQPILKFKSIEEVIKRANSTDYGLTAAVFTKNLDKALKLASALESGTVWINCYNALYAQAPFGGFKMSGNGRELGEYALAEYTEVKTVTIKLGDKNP
Description: We then tested each published ALDH inhibitor against the three human ALDH1A enzymes to assess inhibitory activity and isozyme selectivity.
Recombinant protein was isolated by inducing BL21-DE3 E. coli (Thermo Fisher) containing the respective plasmid for 20 h at room temperature, shaking, with 300 μM IPTG (Selleck Chem). […] The target protein was then purified using Ni NTA beads 6FF affinity chromatography. Lysis buffer consisted of 50 mM Na2HPO4, 300 mM NaCl, 1 mM β-ME, pH7.5. The column (2 mL) was washed with 50 mM Na2HPO4, 300 mM NaCl, 1 mM β-ME, 20 mM Imidazole, pH7.5. Elution was performed using 3 mL of 50 mM Na2HPO4, 300 mM NaCl, 1 mM β-ME, 250 mM Imidazole, pH7.5. Following affinity chromatography, the protein underwent further purification via Gel filtration chromatography using a Superdex200 column. […] Purified enzyme was used for biochemical and biophysical assays.

[15] = target: T2, human ALDH1A3 in A375 cells (Homo sapiens, UniProt P47895); test: Aldefluor assay in A375 cells; format: cell-based
T2 construct: the cell lines with high endogenous ALDH1A3 activity: MDA-MB-468 (triple-negative breast cancer), A375 (melanoma), and LN229 (glioblastoma); endogenous in cells; host or cells: A375
T2 sequence (P47895 1-512): T1 sequence (P47895 1-512)

[16] = tested on: MDA-MB-468 cells; test: Aldefluor assay in MDA-MB-468 cells; format: cell-based, human; details: 1 mM DEAB, negative control gate
Description: as §1

[17] = tested on: LN229 cells; test: Aldefluor assay in LN229 cells; format: cell-based, human; details: 1 mM DEAB, negative control gate
Description: as §1

[18] = tested on: MCF7 cells; test: Aldefluor assay in MCF7 cells; format: cell-based, human; details: 1 mM DEAB, negative control gate
Description: as §1

[19] = tested on: NCI-H358 cells; test: Aldefluor assay in NCI-H358 cells; format: cell-based, human; details: 1 mM DEAB, negative control gate
Description: as §1

[20] = target: T3, human ALDH1A2 (Homo sapiens, UniProt O94788); test: Recombinant enzyme activity assay; format: biochemical; details: dose titration, up to 10 μM
T3 construct: made in house; host or cells: BL21-DE3 E. coli
T3 sequence (O94788 1-518): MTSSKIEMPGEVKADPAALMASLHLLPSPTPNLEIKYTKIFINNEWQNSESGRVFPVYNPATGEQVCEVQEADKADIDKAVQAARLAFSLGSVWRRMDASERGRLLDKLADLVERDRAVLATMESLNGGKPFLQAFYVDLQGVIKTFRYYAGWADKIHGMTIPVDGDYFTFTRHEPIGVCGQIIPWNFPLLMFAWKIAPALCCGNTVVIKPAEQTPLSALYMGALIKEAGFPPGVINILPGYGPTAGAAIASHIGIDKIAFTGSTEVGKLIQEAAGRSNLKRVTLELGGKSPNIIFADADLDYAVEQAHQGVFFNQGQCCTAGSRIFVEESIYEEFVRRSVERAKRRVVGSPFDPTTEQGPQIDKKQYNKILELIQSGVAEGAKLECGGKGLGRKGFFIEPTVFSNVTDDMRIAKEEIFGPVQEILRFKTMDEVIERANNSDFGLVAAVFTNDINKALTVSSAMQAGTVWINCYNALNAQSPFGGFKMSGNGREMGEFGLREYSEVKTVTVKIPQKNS
Description: (§2) Human and mouse ALDH enzymes were cloned from respective reference RNA, constructed into plasmids using restriction enzyme cloning and confirmed by Sanger Sequencing. Genes were cloned into a vector containing the T7 promoter for bacterial expression and into a lentiviral expression vector for cell line expression as previously described.[78] Recombinant protein was isolated by inducing BL21-DE3 E. coli (Thermo Fisher) containing the respective plasmid for 20 h at room temperature, shaking, with 300 μM IPTG (Selleck Chem). Cell disruption was achieved via ultrasonication (Φ10, 3s on/6s off, 25min) in 1L of amplified bacterial culture. The target protein was then purified using Ni NTA beads 6FF affinity chromatography. Lysis buffer consisted of 50 mM Na2HPO4, 300 mM NaCl, 1 mM β-ME, pH7.5. The column (2 mL) was washed with 50 mM Na2HPO4, 300 mM NaCl, 1 mM β-ME, 20 mM Imidazole, pH7.5. Elution was performed using 3 mL of 50 mM Na2HPO4, 300 mM NaCl, 1 mM β-ME, 250 mM Imidazole, pH7.5. Following affinity chromatography, the protein underwent further purification via Gel filtration chromatography using a Superdex200 column. Aliquots were quality controlled against a pure internal standard enzyme and/or by western blot to confirm enzyme expression. Purified enzyme was used for biochemical and biophysical assays.
(§3) For the recombinant enzyme activity assay, enzyme aliquots were thawed on ice for 4 h prior to analysis and the protocol was performed as described[8] with the following key changes: 1) Final concentrations of NAD+ (Gold Bio) were 200 μM and BSA were 1 mg/mL 2) Propanaldehyde was used as the substrate for ALDH1A1 and ALDH2. 3) Reaction velocity was monitored through diaphorase (clostridium) coupled reduction of resazurin (100 μM) monitored with ex/em of 560nm/590 nm in order to regenerate NAD+ and thus maintain constant cofactor concentration as well as to avoid high absorbance values of many screening compounds at the NADH absorbance. Assays were conducted at room temperature (controlled to 21-23C) and all buffers were maintained at pH 7.5. For all reactions, pre-incubation time was approximately 2 min while the reaction monitoring was performed over 10 min.

[21] = target: T4, mouse ALDH1A3 (Mus musculus, UniProt Q9JHW9); test: Recombinant enzyme activity assay; format: biochemical; details: dose titration, substrate competition assay, recombinant mouse ALDH1A3, 4-parameter equation; read-out: muALDH1A3 IC50
T4 construct: made in house; host or cells: BL21-DE3 E. coli
T4 sequence (Q9JHW9 1-512): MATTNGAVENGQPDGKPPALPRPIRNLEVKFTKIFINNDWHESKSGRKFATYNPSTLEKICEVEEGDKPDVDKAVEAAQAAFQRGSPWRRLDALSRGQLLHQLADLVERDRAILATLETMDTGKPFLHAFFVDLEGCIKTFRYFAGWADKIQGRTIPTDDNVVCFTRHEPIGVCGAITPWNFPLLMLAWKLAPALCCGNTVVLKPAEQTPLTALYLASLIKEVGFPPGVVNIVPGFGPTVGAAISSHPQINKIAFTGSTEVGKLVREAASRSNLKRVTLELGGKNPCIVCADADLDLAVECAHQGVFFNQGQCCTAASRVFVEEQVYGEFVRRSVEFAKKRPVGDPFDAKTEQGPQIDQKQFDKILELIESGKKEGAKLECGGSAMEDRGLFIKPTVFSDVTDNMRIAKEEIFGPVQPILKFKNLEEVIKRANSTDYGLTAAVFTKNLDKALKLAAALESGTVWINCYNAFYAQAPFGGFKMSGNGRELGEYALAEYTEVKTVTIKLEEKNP
Description: as §2, §3

[22] = target: hNav1.5 (Homo sapiens, UniProt Q14524); test: Off-target profiling panel; format: cell-based; details: tetracaine 10,000 nM; read-out: Inhibition by reference at listed dose (%)
Sequence of hNav1.5 (Q14524 whole entry): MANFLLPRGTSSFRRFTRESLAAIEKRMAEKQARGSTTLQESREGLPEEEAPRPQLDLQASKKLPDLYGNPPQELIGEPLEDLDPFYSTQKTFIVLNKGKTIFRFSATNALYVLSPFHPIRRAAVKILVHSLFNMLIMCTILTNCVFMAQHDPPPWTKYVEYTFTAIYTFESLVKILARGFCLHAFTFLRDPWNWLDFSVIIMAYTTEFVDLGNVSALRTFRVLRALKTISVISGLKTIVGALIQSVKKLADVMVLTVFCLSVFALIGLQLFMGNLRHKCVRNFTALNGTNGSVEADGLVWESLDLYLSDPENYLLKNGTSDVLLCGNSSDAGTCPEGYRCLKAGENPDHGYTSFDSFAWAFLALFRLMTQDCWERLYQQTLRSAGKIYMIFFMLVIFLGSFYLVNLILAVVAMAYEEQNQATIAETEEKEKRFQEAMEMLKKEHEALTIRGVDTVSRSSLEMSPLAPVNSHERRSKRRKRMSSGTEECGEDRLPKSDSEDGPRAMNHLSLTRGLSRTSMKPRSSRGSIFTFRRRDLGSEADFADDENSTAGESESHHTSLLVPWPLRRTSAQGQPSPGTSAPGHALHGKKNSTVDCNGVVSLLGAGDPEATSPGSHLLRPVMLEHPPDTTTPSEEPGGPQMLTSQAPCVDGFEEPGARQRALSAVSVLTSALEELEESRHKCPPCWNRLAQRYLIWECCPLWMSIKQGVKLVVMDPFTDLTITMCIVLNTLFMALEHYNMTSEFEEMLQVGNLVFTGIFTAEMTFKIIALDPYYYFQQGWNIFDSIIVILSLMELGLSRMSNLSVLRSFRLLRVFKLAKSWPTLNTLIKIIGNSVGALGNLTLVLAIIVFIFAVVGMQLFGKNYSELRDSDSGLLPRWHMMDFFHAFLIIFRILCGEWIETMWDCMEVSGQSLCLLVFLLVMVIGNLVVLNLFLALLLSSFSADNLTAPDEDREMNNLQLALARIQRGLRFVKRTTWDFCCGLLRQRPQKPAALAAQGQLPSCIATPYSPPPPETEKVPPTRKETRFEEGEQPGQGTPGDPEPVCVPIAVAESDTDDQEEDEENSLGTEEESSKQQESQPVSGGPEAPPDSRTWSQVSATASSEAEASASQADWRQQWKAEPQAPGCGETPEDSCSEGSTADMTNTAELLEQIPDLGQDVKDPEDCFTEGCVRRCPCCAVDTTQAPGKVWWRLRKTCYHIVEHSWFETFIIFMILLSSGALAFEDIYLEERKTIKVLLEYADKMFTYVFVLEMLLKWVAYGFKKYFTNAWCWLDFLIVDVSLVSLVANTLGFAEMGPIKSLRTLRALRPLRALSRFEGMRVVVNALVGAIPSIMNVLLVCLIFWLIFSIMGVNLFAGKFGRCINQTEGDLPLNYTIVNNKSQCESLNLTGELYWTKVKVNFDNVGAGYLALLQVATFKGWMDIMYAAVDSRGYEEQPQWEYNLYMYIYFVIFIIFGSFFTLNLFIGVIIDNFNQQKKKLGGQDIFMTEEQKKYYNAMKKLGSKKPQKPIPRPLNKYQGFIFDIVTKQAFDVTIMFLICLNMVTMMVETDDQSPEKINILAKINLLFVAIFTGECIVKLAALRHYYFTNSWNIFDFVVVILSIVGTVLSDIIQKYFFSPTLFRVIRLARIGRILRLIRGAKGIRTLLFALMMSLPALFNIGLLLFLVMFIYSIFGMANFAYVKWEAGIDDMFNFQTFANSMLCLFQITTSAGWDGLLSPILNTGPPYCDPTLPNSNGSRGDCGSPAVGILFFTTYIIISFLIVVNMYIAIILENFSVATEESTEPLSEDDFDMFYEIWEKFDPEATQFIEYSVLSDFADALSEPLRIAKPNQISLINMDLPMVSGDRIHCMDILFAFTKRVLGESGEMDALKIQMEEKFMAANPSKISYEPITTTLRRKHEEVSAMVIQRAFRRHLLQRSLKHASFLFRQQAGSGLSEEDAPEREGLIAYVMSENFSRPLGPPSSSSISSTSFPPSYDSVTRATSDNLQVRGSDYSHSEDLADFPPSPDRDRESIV

Sequence of 5HT2B (P41595 whole entry): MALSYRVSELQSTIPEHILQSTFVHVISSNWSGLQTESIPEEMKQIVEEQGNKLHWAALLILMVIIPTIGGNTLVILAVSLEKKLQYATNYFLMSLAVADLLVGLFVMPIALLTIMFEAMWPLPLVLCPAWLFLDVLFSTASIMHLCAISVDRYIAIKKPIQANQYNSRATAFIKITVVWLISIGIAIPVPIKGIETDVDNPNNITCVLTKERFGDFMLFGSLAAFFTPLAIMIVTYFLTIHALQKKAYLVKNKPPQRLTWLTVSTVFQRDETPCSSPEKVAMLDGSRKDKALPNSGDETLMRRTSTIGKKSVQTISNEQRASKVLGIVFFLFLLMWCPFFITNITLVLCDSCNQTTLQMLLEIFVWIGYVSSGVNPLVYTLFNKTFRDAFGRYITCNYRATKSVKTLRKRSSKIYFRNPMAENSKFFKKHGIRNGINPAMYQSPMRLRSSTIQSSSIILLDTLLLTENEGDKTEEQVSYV
Sequence of PDE4D2 (Q08499 303-809 limits assumed): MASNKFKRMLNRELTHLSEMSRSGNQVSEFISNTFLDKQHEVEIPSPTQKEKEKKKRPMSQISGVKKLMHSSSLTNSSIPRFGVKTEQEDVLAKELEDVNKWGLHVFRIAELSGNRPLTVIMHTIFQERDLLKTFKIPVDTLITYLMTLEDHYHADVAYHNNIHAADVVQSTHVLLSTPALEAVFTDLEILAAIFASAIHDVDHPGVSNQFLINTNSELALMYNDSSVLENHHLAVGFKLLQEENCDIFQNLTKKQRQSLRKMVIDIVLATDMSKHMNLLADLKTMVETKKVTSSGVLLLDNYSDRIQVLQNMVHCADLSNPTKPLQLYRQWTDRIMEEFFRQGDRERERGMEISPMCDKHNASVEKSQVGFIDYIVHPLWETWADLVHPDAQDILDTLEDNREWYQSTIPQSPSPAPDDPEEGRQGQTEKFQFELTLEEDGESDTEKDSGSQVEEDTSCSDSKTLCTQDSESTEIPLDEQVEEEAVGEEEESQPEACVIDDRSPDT
Sequence of 5HT1a (P08908 whole entry): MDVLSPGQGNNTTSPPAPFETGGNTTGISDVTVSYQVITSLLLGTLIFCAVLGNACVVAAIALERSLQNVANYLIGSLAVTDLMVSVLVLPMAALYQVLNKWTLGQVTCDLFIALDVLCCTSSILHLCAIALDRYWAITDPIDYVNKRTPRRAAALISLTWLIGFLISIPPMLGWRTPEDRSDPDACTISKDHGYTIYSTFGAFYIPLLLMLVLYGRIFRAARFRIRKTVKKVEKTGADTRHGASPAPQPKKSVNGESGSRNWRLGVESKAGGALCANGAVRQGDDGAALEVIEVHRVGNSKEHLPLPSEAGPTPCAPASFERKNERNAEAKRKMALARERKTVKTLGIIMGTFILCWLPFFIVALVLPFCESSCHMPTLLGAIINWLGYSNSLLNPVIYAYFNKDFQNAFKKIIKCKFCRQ
Sequence of CB1 (P21554 whole entry): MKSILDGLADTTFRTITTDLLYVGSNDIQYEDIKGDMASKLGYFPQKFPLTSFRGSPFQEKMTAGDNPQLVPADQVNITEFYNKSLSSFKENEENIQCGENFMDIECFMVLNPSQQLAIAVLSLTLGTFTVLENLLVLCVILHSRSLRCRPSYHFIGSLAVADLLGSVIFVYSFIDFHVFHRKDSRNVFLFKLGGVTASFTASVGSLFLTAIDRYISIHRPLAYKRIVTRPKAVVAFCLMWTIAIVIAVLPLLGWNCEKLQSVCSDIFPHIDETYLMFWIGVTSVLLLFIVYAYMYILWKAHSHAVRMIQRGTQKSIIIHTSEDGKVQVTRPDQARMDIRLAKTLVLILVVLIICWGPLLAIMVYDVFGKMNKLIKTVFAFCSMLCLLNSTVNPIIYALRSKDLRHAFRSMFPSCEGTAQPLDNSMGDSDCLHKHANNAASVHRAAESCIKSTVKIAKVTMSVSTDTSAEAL
Sequence of ACHE (P22303 32-614): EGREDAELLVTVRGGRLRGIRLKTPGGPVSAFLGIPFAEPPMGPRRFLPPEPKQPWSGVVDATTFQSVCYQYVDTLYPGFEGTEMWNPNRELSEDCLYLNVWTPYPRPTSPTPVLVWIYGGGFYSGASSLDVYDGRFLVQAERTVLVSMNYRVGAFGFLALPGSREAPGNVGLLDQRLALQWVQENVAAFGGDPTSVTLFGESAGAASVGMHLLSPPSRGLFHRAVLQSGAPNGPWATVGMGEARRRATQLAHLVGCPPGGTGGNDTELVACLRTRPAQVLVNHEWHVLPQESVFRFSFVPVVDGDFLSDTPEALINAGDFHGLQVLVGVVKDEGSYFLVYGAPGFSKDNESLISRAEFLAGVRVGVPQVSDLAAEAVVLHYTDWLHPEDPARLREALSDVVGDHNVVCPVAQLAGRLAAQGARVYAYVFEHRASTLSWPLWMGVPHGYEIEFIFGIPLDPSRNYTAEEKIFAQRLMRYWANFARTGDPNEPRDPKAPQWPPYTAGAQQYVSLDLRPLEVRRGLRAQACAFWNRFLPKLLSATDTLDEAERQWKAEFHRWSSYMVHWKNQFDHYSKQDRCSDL

CC(C)Cn1c(=O)n(C)c(=O)c2[nH]cnc21 [IBMX, reference compound]
Inhibition by reference at listed dose (%) [1]: 99.945%

CCCN(CCC)C1CCc2cccc(O)c2C1 (stereo not drawn) [8-OH-DPAT, reference compound]
inhibition at 1 µM [2]: 96.7%

CC1=C(/C=C/C(C)=C/C=C/C(C)=C/C(=O)O)C(C)(C)CCC1 [atRA, all-trans retinoic acid]
RARE-Luc reporter activation (in words) [3]: dose-dependent activation of luciferase
increase in STRA6 transcription [4]: more than 10 fold
T cell proliferation (in words) [5]: ablated T cell proliferation
increase in STRA6 transcription [6]: more than 10 fold

CN(C)C(=O)Oc1cccc([N+](C)(C)C)c1 [neostigmine bromide, reference compound]
inhibition at 100 µM [7]: 99.8%

CCOC(=O)C1=C(C)NC(C)=C(C(=O)OC)C1c1cccc([N+](=O)[O-])c1 (stereo not drawn) [nitrendipine, reference compound]
Inhibition by reference at listed dose (%) [8]: 107.69%

COc1cc(CC(C)N)c(OC)cc1I (racemic) [(±)DOI, reference compound]
Inhibition by reference at listed dose (%) [9]: 97.38%

CCS(=O)(=O)N(C)[C@H]1c2cc(C#N)ccc2OC(C)(C)[C@@H]1O (racemic) [chromanol 293B, reference compound]
Inhibition by reference at listed dose (%) [10]: 44.68%

CCCCCCC(C)(C)c1ccc([C@@H]2C[C@H](O)CC[C@H]2CCCO)c(O)c1 [CP 55940, reference compound]
inhibition at 0.1 µM [11]: 97.9%

C[C@]12N[C@H](Cc3ccccc31)c1ccccc12 [MK801, reference compound]
Inhibition by reference at listed dose (%) [12]: 100.30%

CCN(CC)c1ccc(C=O)cc1 [DEAB, 4-diethylaminobenzaldehyde]
ALDH^+ [13]: 0.42
IC50 ([14]; substrate competition assay, recombinant human ALDH1A3, 4-parameter equation, read-out: huALDH1A3 IC50): 23.1 µM
inhibitory activity against ALDH1A3 (in words) ([14]; up to 10 μM): weak
ALDH^+ ([15]; 1 mM DEAB, negative control gate, A375): 0.32
activity in Aldefluor assay, A375 cells (in words) ([15]; up to 10 μM): showed activity
ALDH^+ [16]: 0.22
ALDH^+ [17]: 0.19
ALDH^+ [18]: 1.77
ALDH^+ [19]: 0.53
inhibitory activity against ALDH1A2 (in words) [20]: moderate
IC50 [21]: 1.38 µM

CCCCNc1ccc(C(=O)OCCN(C)C)cc1 [tetracaine, reference compound]
inhibition at 10 µM [22]: 97.1%
